Reference: patent US4363805A, “Aminodesoxy-1.4;3.6-dianhydrohexitol nitrates and pharmaceutical composition” (Firma Willmar Schwabe, priority 1980, dated 1982)

Assays:
[1] = system: isolated guinea pig hearts; assay: Experiments on Langendorff hearts (coronary flowthrough, inotropism, frequency); conditions: Cavia porcellus, read-out: flowthrough, percentage change with regard to the initial value
Procedure: After reaching the stationary state in the 30th minute, the hearts were each perfused with 50 ml. tyrode solution with a content of test substance of, in each case, 25 μg./ml. Each test substance was tested on 3-6 hearts.
In each case, there was measured the inotropism, the flowthrough and the frequency, whereby the values given in Table I are average values of the percentage changes in comparison with the initial values.

narcotised guinea pigs = assay: Blood pressure experiments on guinea pigs, i.v.; type: in vivo, guinea pig
mongrel cats = assay: Inotropic and heart-circulatory effectiveness on narcotised cats, intravenous; type: in vivo, cat; conditions: 6 animals; for blood pressure before / dp/dt (inotropism) before / heart frequency before: before administration

Row | Structure (SMILES) | activation at 25 µg/mL [1] [%] | blood pressure before (mongrel cats; 0.25 mg/kg i.v.) [mm.Hg] | dp/dt (inotropism) before (mongrel cats; 0.25 mg/kg i.v.) [mm.Hg/sec] | heart frequency before (mongrel cats; 0.25 mg/kg i.v.) [min⁻¹] | blood pressure WD (mongrel cats; 0.25 mg/kg i.v.) [min] | blood pressure after (mongrel cats; 0.25 mg/kg i.v.) [mm.Hg] | blood pressure Δ (mongrel cats; 0.25 mg/kg i.v.) [mm.Hg] | dp/dt (inotropism) after (mongrel cats; 0.25 mg/kg i.v.) [mm.Hg/sec] | dp/dt (inotropism) Δ (mongrel cats; 0.25 mg/kg i.v.) [mm.Hg/sec] | dp/dt WD (mongrel cats; 0.25 mg/kg i.v.) [min] | heart frequency after (mongrel cats; 0.25 mg/kg i.v.) [min⁻¹] | heart frequency Δ (mongrel cats; 0.25 mg/kg i.v.) | blood pressure WD (mongrel cats; 0.50 mg/kg i.v.) [min] | blood pressure after (mongrel cats; 0.50 mg/kg i.v.) [mm.Hg] | blood pressure Δ (mongrel cats; 0.50 mg/kg i.v.) [mm.Hg] | dp/dt (inotropism) after (mongrel cats; 0.50 mg/kg i.v.) [mm.Hg/sec] | dp/dt (inotropism) Δ (mongrel cats; 0.50 mg/kg i.v.) [mm.Hg/sec] | dp/dt WD (mongrel cats; 0.50 mg/kg i.v.) | heart frequency after (mongrel cats; 0.50 mg/kg i.v.) [min⁻¹] | heart frequency Δ (mongrel cats; 0.50 mg/kg i.v.) | also measured
1 | O=[N+]([O-])O[C@@H]1CO[C@H]2[C@@H]1OC[C@@H]2O [ISMN, 1.4;3.6-dianhydro-D-glucitol 2-nitrate, reference compound] | 9.11 |  |  |  |  |  |  |  |  |  |  |  |  |  |  |  |  |  |  |  | blood pressure Δ (narcotised guinea pigs; 0.25 mg/kg i.v.): -3.70 mm.Hg; blood pressure Δ (narcotised guinea pigs; 1.00 mg/kg i.v.): -6.30 mm.Hg; blood pressure Δ (narcotised guinea pigs; 2.50 mg/kg i.v.): -10.90 mm.Hg
2 | CN(CCCCCc1ccccc1)[C@H]1CO[C@H]2[C@@H]1OC[C@@H]2O[N+](=O)[O-] [Example 23, 5-[N-Methyl-N-(5-phenylpentyl)-amino]-5-desoxy-1.4;3.6-dianhydro-L-iditol 2-nitrate] | 156 |  |  |  |  |  |  |  |  |  |  |  |  |  |  |  |  |  |  |  | 
3 | O=[N+]([O-])O[C@H]1CO[C@H]2[C@@H]1OC[C@H]2NCC(O)COc1cccc2ccccc12 (stereo partly drawn) [Example 55, 5-[2-Hydroxy-3-(1-naphthyloxy)-propylamino]-5-desoxy-1.4;3.6-dianhydro-D-glucitol 2-nitrate] | 203 | 113.8 | 5633 | 161.7 | 4.8 | 107.0 | -6.8 | 5200 | -433 | 4.2 | 164.7 | +3.0 min^-1 | 2.8 | 98.8 | -12.7 | 4667 | -533 | 5.2 min | 157.3 | +2.0 min^-1 | blood pressure WD (mongrel cats; 1.00 mg/kg i.v.): 5.2 min; blood pressure after (mongrel cats; 1.00 mg/kg i.v.): 96.8 mm.Hg; blood pressure Δ (mongrel cats; 1.00 mg/kg i.v.): -18.2 mm.Hg; dp/dt (inotropism) after (mongrel cats; 1.00 mg/kg i.v.): 4000 mm.Hg/sec; dp/dt (inotropism) Δ (mongrel cats; 1.00 mg/kg i.v.): -1117 mm.Hg/sec; dp/dt WD (mongrel cats; 1.00 mg/kg i.v.): 8.9 min; heart frequency after (mongrel cats; 1.00 mg/kg i.v.): 154.0 min⁻¹; heart frequency Δ (mongrel cats; 1.00 mg/kg i.v.): -1.3 min⁻¹; blood pressure WD (mongrel cats; 2.50 mg/kg i.v.): 6.3 min; blood pressure after (mongrel cats; 2.50 mg/kg i.v.): 94.3 mm.Hg; blood pressure Δ (mongrel cats; 2.50 mg/kg i.v.): -26.0 mm.Hg; dp/dt (inotropism) after (mongrel cats; 2.50 mg/kg i.v.): 3517 mm.Hg/sec; dp/dt (inotropism) Δ (mongrel cats; 2.50 mg/kg i.v.): -1266 mm.Hg/sec; dp/dt WD (mongrel cats; 2.50 mg/kg i.v.): > 7.8 min; heart frequency after (mongrel cats; 2.50 mg/kg i.v.): 148.0 min⁻¹; heart frequency Δ (mongrel cats; 2.50 mg/kg i.v.): 0 min⁻¹
4 | CN(CCCOc1ccccc1)[C@H]1CO[C@H]2[C@@H]1OC[C@@H]2O[N+](=O)[O-] [Example 34, 5-[N-Methyl-N-(3-phenoxypropyl)-amino]-5-desoxy-1.4;3.6-dianhydro-L-iditol 2-nitrate] | 50 | 95.2 | 5333 | 180.3 | 4.1 | 73.7 | -21.5 | 4650 | -683 | 2.8 | 179.3 | -1.0 min⁻¹ | 4.2 | 74.8 | -24.2 | 4683 | -817 | 3,7 min | 178.0 | -1.0 min⁻¹ | blood pressure WD (mongrel cats; 1.00 mg/kg i.v.): 6.5 min; blood pressure after (mongrel cats; 1.00 mg/kg i.v.): 74.5 mm.Hg; blood pressure Δ (mongrel cats; 1.00 mg/kg i.v.): -30.8 mm.Hg; dp/dt (inotropism) after (mongrel cats; 1.00 mg/kg i.v.): 4400 mm.Hg/sec; dp/dt (inotropism) Δ (mongrel cats; 1.00 mg/kg i.v.): -1033 mm.Hg/sec; dp/dt WD (mongrel cats; 1.00 mg/kg i.v.): 4.2 min; heart frequency after (mongrel cats; 1.00 mg/kg i.v.): 172.0 min⁻¹; heart frequency Δ (mongrel cats; 1.00 mg/kg i.v.): -3.0 min⁻¹; blood pressure WD (mongrel cats; 2.50 mg/kg i.v.): > 9.0 min; blood pressure after (mongrel cats; 2.50 mg/kg i.v.): 69.2 mm.Hg; blood pressure Δ (mongrel cats; 2.50 mg/kg i.v.): -39.7 mm.Hg; dp/dt (inotropism) after (mongrel cats; 2.50 mg/kg i.v.): 3850 mm.Hg/sec; dp/dt (inotropism) Δ (mongrel cats; 2.50 mg/kg i.v.): -1450 mm.Hg/sec; dp/dt WD (mongrel cats; 2.50 mg/kg i.v.): > 6.5 min; heart frequency after (mongrel cats; 2.50 mg/kg i.v.): 158.0 min⁻¹; heart frequency Δ (mongrel cats; 2.50 mg/kg i.v.): -15.0 min⁻¹
